pIC50: −log10 of the molar value.
Tested on: 475296-252-R-J1-PDC spheroid viability
Assay: Anticancer human tumor 475296-252-R-J1-PDC patient-derived rectal carcinoma cell line growth inhibition [PI3K]
Conditions: spheroids with HUVEC and MSC; for pIC50: curve of first compound; for viability, T/C: stronger effect = lower value
How it was run: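 We assembled tumor spheroids that included a stromal compartment of HUVEC and MSCs, then exposed them to targeted agents alone and together with PI3K pathway inhibitors. Concentration series descended by half-log from clinically achievable Cmax levels. Viability served as the endpoint.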

[1] = second compound 0.00316 µM, first compound 0.0316 µM
[2] = second compound 0.00316 µM, first compound 0.1 µM
[3] = second compound 0.00316 µM, first compound 0.316 µM
[4] = second compound 0.00316 µM, first compound 1 µM
[5] = second compound 0.00316 µM, first compound 3.16 µM
[6] = second compound 0.00316 µM, first compound 10 µM
[7] = second compound 0.01 µM, first compound 0.0316 µM
[8] = second compound 0.01 µM, first compound 0.1 µM
[9] = second compound 0.01 µM, first compound 0.316 µM
[10] = second compound 0.01 µM, first compound 1 µM
[11] = second compound 0.01 µM, first compound 3.16 µM
[12] = second compound 0.01 µM, first compound 10 µM
[13] = second compound 0.0316 µM, first compound 0.0316 µM
[14] = second compound 0.0316 µM, first compound 0.1 µM
[15] = second compound 0.0316 µM, first compound 0.316 µM
[16] = second compound 0.0316 µM, first compound 1 µM
[17] = second compound 0.0316 µM, first compound 3.16 µM
[18] = second compound 0.0316 µM, first compound 10 µM
[19] = second compound 0.1 µM, first compound 0.0316 µM
[20] = second compound 0.1 µM, first compound 0.1 µM
[21] = second compound 0.1 µM, first compound 0.316 µM
[22] = second compound 0.1 µM, first compound 1 µM
[23] = second compound 0.1 µM, first compound 3.16 µM
[24] = second compound 0.1 µM, first compound 10 µM
[25] = second compound 0.316 µM, first compound 0.0316 µM
[26] = second compound 0.316 µM, first compound 0.1 µM
[27] = second compound 0.316 µM, first compound 0.316 µM
[28] = second compound 0.316 µM, first compound 1 µM
[29] = second compound 0.316 µM, first compound 3.16 µM
[30] = second compound 0.316 µM, first compound 10 µM
[31] = second compound 1 µM, first compound 0.0316 µM
[32] = second compound 1 µM, first compound 0.1 µM
[33] = second compound 1 µM, first compound 0.316 µM
[34] = second compound 1 µM, first compound 1 µM
[35] = second compound 1 µM, first compound 3.16 µM
[36] = second compound 1 µM, first compound 10 µM
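Also: spheroids exposed to agents for seven days before readout.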

C#Cc1c(F)ccc2cc(O)cc(-c3ncc4c(N5CC6CCC(C5)N6)nc(OCC56CCCN5CC(F)C6)nc4c3F)c12 (stereo not drawn) + COc1c(OCCCN2CCOCC2)ccc2c3n(c(=NC(=O)c4cnc(N)nc4)nc12)CCN3
pIC50 (second compound 0.00316 µM): 5.10 | pIC50 (second compound 0.01 µM): 5.68 | pIC50 (second compound 0.0316 µM): 6.06 | pIC50 (second compound 0.1 µM): 6.64 | pIC50 (second compound 0.316 µM): 6.87 | pIC50 (second compound 1 µM): > 7.50 | viability, T/C [1]: 85.9% | viability, T/C [2]: 87.5% | viability, T/C [3]: 79.7% | viability, T/C [4]: 75.3% | viability, T/C [5]: 59.2% | viability, T/C [6]: 47.8% | viability, T/C [7]: 89.5% | viability, T/C [8]: 90.8% | viability, T/C [9]: 68% | viability, T/C [10]: 57.2% | viability, T/C [11]: 48.9% | viability, T/C [12]: 39.9% | viability, T/C [13]: 80.6% | viability, T/C [14]: 76.4% | viability, T/C [15]: 65.4% | viability, T/C [16]: 46.1% | viability, T/C [17]: 31.1% | viability, T/C [18]: 14.3% | viability, T/C [19]: 67% | viability, T/C [20]: 68.9% | viability, T/C [21]: 40.7% | viability, T/C [22]: 23% | viability, T/C [23]: 8.13% | viability, T/C [24]: 3.98% | viability, T/C [25]: 64.5% | viability, T/C [26]: 57.4% | viability, T/C [27]: 28.3% | viability, T/C [28]: 7.5% | viability, T/C [29]: 3.69% | viability, T/C [30]: 2.51% | viability, T/C [31]: 45.9% | viability, T/C [32]: 34.2% | viability, T/C [33]: 21.3% | viability, T/C [34]: 6.91% | viability, T/C [35]: 5.05% | viability, T/C [36]: 4.55%

C=CC(=O)N1CCN(c2nc(=O)n(-c3c(C)ccnc3C(C)C)c3nc(-c4c(O)cccc4F)c(F)cc23)C(C)C1 (stereo not drawn) + COc1c(OCCCN2CCOCC2)ccc2c3n(c(=NC(=O)c4cnc(N)nc4)nc12)CCN3
pIC50 (second compound 0.00316 µM): < 5.00 | pIC50 (second compound 0.01 µM): < 5.00 | pIC50 (second compound 0.0316 µM): < 5.00 | pIC50 (second compound 0.1 µM): < 5.00 | pIC50 (second compound 0.316 µM): < 5.00 | pIC50 (second compound 1 µM): < 5.00 | viability, T/C [1]: 102% | viability, T/C [2]: 101% | viability, T/C [3]: 101% | viability, T/C [4]: 99.4% | viability, T/C [5]: 110% | viability, T/C [6]: 106% | viability, T/C [7]: 94.3% | viability, T/C [8]: 99.2% | viability, T/C [9]: 93.8% | viability, T/C [10]: 105% | viability, T/C [11]: 106% | viability, T/C [12]: 98.1% | viability, T/C [13]: 94.4% | viability, T/C [14]: 91.1% | viability, T/C [15]: 91.2% | viability, T/C [16]: 98.7% | viability, T/C [17]: 91.4% | viability, T/C [18]: 108% | viability, T/C [19]: 91.6% | viability, T/C [20]: 85.5% | viability, T/C [21]: 84% | viability, T/C [22]: 97.8% | viability, T/C [23]: 86% | viability, T/C [24]: 87.1% | viability, T/C [25]: 75.7% | viability, T/C [26]: 78.3% | viability, T/C [27]: 64.9% | viability, T/C [28]: 83.6% | viability, T/C [29]: 77.5% | viability, T/C [30]: 81% | viability, T/C [31]: 58.2% | viability, T/C [32]: 65.7% | viability, T/C [33]: 63.7% | viability, T/C [34]: 63.9% | viability, T/C [35]: 58.1% | viability, T/C [36]: 69.8%

CC(Cn1ccc(-c2ccc(C#N)c(Cl)c2)n1)NC(=O)c1cc(C(C)O)[nH]n1 (stereo not drawn) + COc1c(OCCCN2CCOCC2)ccc2c3n(c(=NC(=O)c4cnc(N)nc4)nc12)CCN3
pIC50 (second compound 0.00316 µM): < 5.00 | pIC50 (second compound 0.01 µM): < 5.00 | pIC50 (second compound 0.0316 µM): < 5.00 | pIC50 (second compound 0.1 µM): < 5.00 | pIC50 (second compound 0.316 µM): < 5.00 | pIC50 (second compound 1 µM): < 5.00 | viability, T/C [1]: 106% | viability, T/C [2]: 99.3% | viability, T/C [3]: 103% | viability, T/C [4]: 91.7% | viability, T/C [5]: 107% | viability, T/C [6]: 94.7% | viability, T/C [7]: 102% | viability, T/C [8]: 101% | viability, T/C [9]: 111% | viability, T/C [10]: 95.8% | viability, T/C [11]: 102% | viability, T/C [12]: 87.7% | viability, T/C [13]: 97% | viability, T/C [14]: 87.6% | viability, T/C [15]: 89.7% | viability, T/C [16]: 81.2% | viability, T/C [17]: 90.6% | viability, T/C [18]: 88.2% | viability, T/C [19]: 84.6% | viability, T/C [20]: 88.7% | viability, T/C [21]: 77.8% | viability, T/C [22]: 95.3% | viability, T/C [23]: 91.6% | viability, T/C [24]: 83% | viability, T/C [25]: 73.8% | viability, T/C [26]: 74% | viability, T/C [27]: 73.4% | viability, T/C [28]: 71.7% | viability, T/C [29]: 79.1% | viability, T/C [30]: 67.3% | viability, T/C [31]: 65.2% | viability, T/C [32]: 68.7% | viability, T/C [33]: 75.8% | viability, T/C [34]: 62.2% | viability, T/C [35]: 71% | viability, T/C [36]: 64%

CC1(C)CCC(Nc2ncc(C(F)(F)F)c(-c3c[nH]c4c(P(C)(C)=O)c(C#N)ccc34)n2)CN1 (stereo not drawn) + COc1c(OCCCN2CCOCC2)ccc2c3n(c(=NC(=O)c4cnc(N)nc4)nc12)CCN3
pIC50 (second compound 0.00316 µM): < 5.00 | pIC50 (second compound 0.01 µM): < 5.00 | pIC50 (second compound 0.0316 µM): < 5.00 | pIC50 (second compound 0.1 µM): 5.11 | pIC50 (second compound 0.316 µM): 5.26 | pIC50 (second compound 1 µM): 5.85 | viability, T/C [1]: 91.7% | viability, T/C [2]: 93.5% | viability, T/C [3]: 115% | viability, T/C [4]: 130% | viability, T/C [5]: 147% | viability, T/C [6]: 63.2% | viability, T/C [7]: 101% | viability, T/C [8]: 96% | viability, T/C [9]: 112% | viability, T/C [10]: 119% | viability, T/C [11]: 140% | viability, T/C [12]: 52.2% | viability, T/C [13]: 85.3% | viability, T/C [14]: 86.7% | viability, T/C [15]: 95% | viability, T/C [16]: 103% | viability, T/C [17]: 125% | viability, T/C [18]: 56.1% | viability, T/C [19]: 79.9% | viability, T/C [20]: 85.4% | viability, T/C [21]: 91.7% | viability, T/C [22]: 82% | viability, T/C [23]: 98.5% | viability, T/C [24]: 39.4% | viability, T/C [25]: 69.1% | viability, T/C [26]: 76.8% | viability, T/C [27]: 72% | viability, T/C [28]: 78.1% | viability, T/C [29]: 74.3% | viability, T/C [30]: 23.7% | viability, T/C [31]: 57.4% | viability, T/C [32]: 50.5% | viability, T/C [33]: 49.8% | viability, T/C [34]: 54.9% | viability, T/C [35]: 44.2% | viability, T/C [36]: 9.59%

Source: PubChem BioAssay AID1963980 (Molecular Pharmacology Branch, DTP, NCI, 2024)
